Results: US12624007B2, “Naphthalimide sulfonate derivative, and photoacid generator and photoresist composition which comprise same” (SAMYANG CORPORATION, priority 2020, dated 2026)

What was measured:
[1] = Thermal stability by thermogravimetric analyzer (5% weight loss temperature); assay type: physicochemical
From the text: Measurement of Thermal Stability
If a photoacid generator is thermally stable in a photoresist preparation process, a very good effect in terms of stability can be expected.

[2] = Measurement of solubility of photoacid generators in photoresist solvents; settings: for Solubility PGMEA: solvent PGMEA; for Solubility Cyclohexane: solvent cyclohexane

Temperature at which 5% weight loss occurred [1] | Solubility PGMEA [2] | Solubility Cyclohexane [2] | Compound
242 °C | 9.2 w/v; % | 26.1 w/v; % | O=C1c2cccc3c(CC4CC4)ccc(c23)C(=O)N1OS(=O)(=O)C(F)(F)F [Compound 1, 4-cyclopropanemethyl-naphthalimide trifluoromethane sulfonate]
252 °C | 3.1 w/v; % | 7.8 w/v; % | O=C1c2cccc3c(CC4CCCCC4)ccc(c23)C(=O)N1OS(=O)(=O)C(F)(F)F [Compound 5]
258 °C | 6.3 w/v; % | 21.3 w/v; % | O=C1c2cccc3c(CCCC4CCCC4)ccc(c23)C(=O)N1OS(=O)(=O)C(F)(F)F [Compound 9]
236 °C | 11.0 w/v; % | 31.2 w/v; % | CC(C)(C)c1cc2c3c(ccc(CC4CCCCC4)c3c1)C(=O)N(OS(=O)(=O)C(F)(F)F)C2=O [Compound 19]
223 °C |  |  | O=C1c2cccc3cccc(c23)C(=O)N1OS(=O)(=O)C(F)(F)F [Formula V, reference compound]
